Reference: the supplement of paper PMC11061612

Columns and labels:
Assay in all cases: combination Emax (second highest fraction inhibited in the dose matrix, 72 h); higher = more inhibition; extreme values may be limits of the assay
[1] = test system: MHH-ES-1 (Ewing's Sarcoma)
How it was run: (§1)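 Bliss excess equals the observed combination effect minus the expected value EA + EB − EA·EB, where EA and EB are the effects of each agent alone. Combination Emax is the second-highest inhibition within the matrix. Inhibition was scaled from CellTiter-Glo 2.0 luminescence, with 0 set by vehicle wells and 1 by blank wells, after 72 hours of two-drug dosing of cells plated in 1536-well plates.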

[2] = test system: SW620 (Colorectal Carcinoma)
How it was run: as §1

[3] = test system: NCI-H2087 (Lung Adenocarcinoma)
How it was run: as §1

IM-9 (Non-Cancerous) = test system: IM-9 (Non-Cancerous)
How it was run: as §1

EW-7 (Ewing's Sarcoma) = test system: EW-7 (Ewing's Sarcoma)
How it was run: as §1

WM1552C (Melanoma) = test system: WM1552C (Melanoma)
How it was run: as §1

[4] = test system: JHH-2 (Hepatocellular Carcinoma)
How it was run: as §1

[5] = test system: SK-HEP-1 (Hepatocellular Carcinoma)
How it was run: as §1

[6] = test system: MDA-MB-436 (Breast Carcinoma)
How it was run: as §1

[7] = test system: KYSE-220 (Esophageal Squamous Cell Carcinoma)
How it was run: as §1

[8] = test system: HCC1395 (Breast Carcinoma)
How it was run: as §1

[9] = test system: JHU-022 (Oral Cavity Carcinoma)
How it was run: as §1

EB2 (Burkitt's Lymphoma) = test system: EB2 (Burkitt's Lymphoma)
How it was run: as §1

[10] = test system: NCI-H1651 (Lung Adenocarcinoma)
How it was run: as §1

[11] = test system: A2780 (Ovarian Carcinoma)
How it was run: as §1

[12] = test system: CGTH-W-1 (Thyroid Gland Carcinoma)
How it was run: as §1

[13] = test system: LU-165 (Small Cell Lung Carcinoma)
How it was run: as §1

769-P (Kidney Carcinoma) = test system: 769-P (Kidney Carcinoma)
How it was run: as §1

[14] = test system: 22RV1 (Prostate Carcinoma)
How it was run: as §1

HCC70 (Breast Carcinoma) = test system: HCC70 (Breast Carcinoma)
How it was run: as §1

Compound	combination Emax [1]	combination Emax [2]	combination Emax [3]	combination Emax (IM-9 (Non-Cancerous))	combination Emax (EW-7 (Ewing's Sarcoma))	combination Emax (WM1552C (Melanoma))	combination Emax [4]	combination Emax [5]	combination Emax [6]	combination Emax [7]	combination Emax [8]	combination Emax [9]	combination Emax (EB2 (Burkitt's Lymphoma))	combination Emax [10]	combination Emax [11]	combination Emax [12]	combination Emax [13]	combination Emax (769-P (Kidney Carcinoma))	combination Emax [14]	combination Emax (HCC70 (Breast Carcinoma))
C[C@@H](c1ccc2nccn2c1)n1nnc2ncc(-c3cnn(C)c3)nc21 [Savolitinib] + CN(CC[C@H](CSC1=CC=CC=C1)NC2=C(C=C(C=C2)S(=O)(=O)NC(=O)C3=CC=C(C=C3)N4CCC(CC4)[C@H](C5=CC=CC=C5C6=CC=C(C=C6)Cl)O)S(=O)(=O)C(F)(F)F)CCO [AZD4320] (first compound max 1 µM, 7x7, partner max 1 µM)	0.404	0.207																		
Cc1cc2ncnn2cc1Nc1ncc2c(n1)n(C1CCOCC1)c(=O)n2C [AZD7648] + O=C(c1cc(Cc2n[nH]c(=O)c3ccccc23)ccc1F)N1CCN(C(=O)C2CC2)CC1 [Olaparib] (first compound max 10 µM, 7x7, partner max 10 µM)	0.801	0.159	0.135	0.51	0.536	0.117	0.473	0.242	0.195	0.149	0.4	0.172	0.526	0.263	0.576	0.122	0.143	0.232	0.346	0.178
N#Cc1cnc(Nc2cc(NC[C@H]3CNCCO3)c(C(F)(F)F)cn2)cn1 [SRA737] + C=CCn1c(=O)c2cnc(Nc3ccc(N4CCN(C)CC4)cc3)nc2n1-c1cccc(C(C)(C)O)n1 [AZD1775] (first compound max 10 µM, partner max 1 µM)	0.667	0.587	0.645	1	0.954	0.751	0.652	0.23	0.274	0.711	0.753	0.528	0.911	0.713	0.966	0.432	0.598	0.9	0.516	0.848
CN(CCO)CC[C@H](CSc1ccccc1)Nc1ccc(S(=O)(=O)NC(=O)c2ccc(N3CCC([C@@H](O)c4ccccc4-c4ccc(Cl)cc4)CC3)cc2)cc1S(=O)(=O)C(F)(F)F [AZD4320] + C1CN(CCC1(C(=O)N[C@@H](CCO)C2=CC=C(C=C2)Cl)N)C3=NC=NC4=C3C=CN4 [Capivasertib] (first compound max 1 µM, 7x7, partner max 3 µM)	0.48	0.137	0.232	0.586	0.861	0.183	0.539	0.245	0.142	0.237	0.408	0.308	0.534	0.193	0.515	0.19	0.581	0.576	0.471	0.813
CN(CCO)CC[C@H](CSc1ccccc1)Nc1ccc(S(=O)(=O)NC(=O)c2ccc(N3CCC([C@@H](O)c4ccccc4-c4ccc(Cl)cc4)CC3)cc2)cc1S(=O)(=O)C(F)(F)F [AZD4320] + Cn1cnc2c(F)c(Nc3ccc(Br)cc3Cl)c(C(=O)NOCCO)cc21 [Selumetinib] (first compound max 1 µM, 7x7, partner max 3 µM)	0.951	0.942	0.908	1	0.968	0.558	0.452	0.603	0.335	0.505	0.281	0.629	0.377	0.39	0.512	0.342	0.748	0.36	0.453	0.7
COc1nnc2ccc(N3CCC(c4ccc(OCCN5CCN(C)C(=O)[C@H]5C)cc4)CC3)nn12 [AZD5153] + CN(CC[C@H](CSC1=CC=CC=C1)NC2=C(C=C(C=C2)S(=O)(=O)NC(=O)C3=CC=C(C=C3)N4CCC(CC4)[C@H](C5=CC=CC=C5C6=CC=C(C=C6)Cl)O)S(=O)(=O)C(F)(F)F)CCO [AZD4320] (first compound max 1 µM, 7x7, partner max 1 µM)	0.74	0.84																		
COc1cc2ncnc(Nc3ccc(F)c(Cl)c3)c2cc1OCCCN1CCOCC1 [Gefitinib] + CC(C)n1c(=O)n(C)c2cnc3cc(F)c(-c4ccc(OCCCN5CCCCC5)nc4)cc3c21 [AZD1390] (first compound max 10 µM, 7x7, partner max 0.3 µM)	0.182	0.0744	0.131	0.424	0.328	0.12	0.304	0.369	0.225	0.431	0.192	0.626	0.38	0.112	0.485	0	0.173	0.442	0.148	0.162
Cc1cc2ncnn2cc1Nc1ncc2c(n1)n(C1CCOCC1)c(=O)n2C [AZD7648] + C[C@@H]1COCCN1C2=NC(=NC(=C2)C3(CC3)[S@](=N)(=O)C)C4=C5C=CNC5=NC=C4 [AZD6738] (first compound max 10 µM, 7x7, partner max 10 µM)	0.565	0.437	0.583	0.964	0.924	0.633	0.736	0.382	0.362	0.91	0.748	0.578	0.803	0.536	0.806	0.317	0.317	0.819	0.518	0.764
CN(CCO)CC[C@H](CSc1ccccc1)Nc1ccc(S(=O)(=O)NC(=O)c2ccc(N3CCC([C@@H](O)c4ccccc4-c4ccc(Cl)cc4)CC3)cc2)cc1S(=O)(=O)C(F)(F)F [AZD4320] + CCN(CCO)CCCOc1ccc2c(Nc3cc(CC(=O)Nc4cccc(F)c4)[nH]n3)ncnc2c1 [AZD2811] (first compound max 1 µM, 7x7, partner max 1 µM)	0.924	0.946	0.464	1	0.817	0.481	0.169	0.793	0.0639	0.196	0.309	0.315	0.338	0.204	0.49	0.292	0.486	0.752	0.259	0.66
CN(CCO)CC[C@H](CSc1ccccc1)Nc1ccc(S(=O)(=O)NC(=O)c2ccc(N3CCC([C@@H](O)c4ccccc4-c4ccc(Cl)cc4)CC3)cc2)cc1S(=O)(=O)C(F)(F)F [AZD4320] + C[C@@H]1COCCN1C2=NC(=NC(=C2)C3(CC3)[S@](=N)(=O)C)C4=C5C=CNC5=NC=C4 [AZD6738] (first compound max 1 µM, 7x7, partner max 10 µM)	0.85	0.793	0.919	1	1	0.73	0.792	0.411	0.34	0.877	0.819	0.753	0.835	0.728	0.799	0.424	0.776	0.966	0.624	0.845
N#Cc1cnc(Nc2cc(NC[C@H]3CNCCO3)c(C(F)(F)F)cn2)cn1 [SRA737] + O=c1[nH]cc(F)c(=O)[nH]1 [5-Fluorouracil] (first compound max 10 µM, 7x7, partner max 20 µM)	0.697	0.422	0.309	1	0.814	0.728	0.623	0.416	0.409	0.497	0.653	0.513	0.88	0.479	0.72	0.646	0.413	0.756	0.616	0.743
Cc1cc2ncnn2cc1Nc1ncc2c(n1)n(C1CCOCC1)c(=O)n2C [AZD7648] + COc1cc([C@@H]2c3cc4c(cc3[C@@H](O[C@@H]3O[C@@H]5CO[C@@H](C)O[C@H]5[C@H](O)[C@H]3O)[C@H]3COC(=O)[C@H]23)OCO4)cc(OC)c1O [Etoposide] (first compound max 10 µM, 7x7, partner max 10 µM)	0.931	0.95	0.633	1	0.882	0.507	0.605	0.653	0.386	0.876	0.432	0.577	0.953	0.738	0.889	0.603	0.495	0.75	0.666	0.373
CC(=O)c1c(C)c2cnc(Nc3ccc(N4CCNCC4)cn3)nc2n(C2CCCC2)c1=O [Palbociclib] + CN(CC[C@H](CSC1=CC=CC=C1)NC2=C(C=C(C=C2)S(=O)(=O)NC(=O)C3=CC=C(C=C3)N4CCC(CC4)[C@H](C5=CC=CC=C5C6=CC=C(C=C6)Cl)O)S(=O)(=O)C(F)(F)F)CCO [AZD4320] (first compound max 10 µM, 7x7, partner max 1 µM)	0.835	0.693																		
